Laboratory results reported in US20080194585A1, “Fungicidal Pyrazine Derivatives” (priority 2005, published 2008).
Marks after values point to notes of the source that are not given here.

Tests used:
Pythium aphanidermatum = test: Test A: bluegrass pythium blight, preventive spray on bluegrass seedlings
Septoria nodorum = test: Test H: wheat glum blotch, preventive spray on wheat seedlings
Experimental: (the causal agent of wheat glum blotch) and incubated in a saturated atmosphere at 20° C. for 48 h, and then moved to a growth chamber at 22° C. for 5 days, after which disease ratings were made.

[1] = tested on: Erysiphe graminis f. sp. tritici; test: Test L: wheat powdery mildew, preventive spray on wheat seedlings
Sclerotinia sclerotiorum = test: Test C: cucumber white mold, preventive spray on cucumber seedlings
[2] = tested on: Colletotrichum orbiculare; test: Test B: cucumber Colletotrichum anthracnose, preventive spray on cucumber seedlings
Septoria tritici = test: Test J: wheat leaf blotch, preventive spray on wheat seedlings; type: in vivo
Text: A dash (-) indicates no test results.

Botrytis cinerea = test: Test E: tomato botrytis, preventive spray on tomato seedlings
Plasmopara viticola = test: Test D: grape downy mildew, spray after inoculation of grape seedlings; type: in vivo
Text: Upon removal, disease ratings were made. […] A dash (-) indicates no test results.

Phytophthora infestans = test: whole plant or invertebrate; type: in vivo
Rhizoctonia oryzae = test: Test G: turf brown patch, preventive spray on creeping bent grass seedlings
Experimental: (the causal agent of turf brown patch) and incubated in a saturated atmosphere at 27° C. for 24 h, and then moved to a growth chamber at 27° C. for 5 days, after which disease ratings were made.

[3] = tested on: Puccinia recondita f. sp. tritici; test: Test K: wheat leaf rust, preventive spray on wheat seedlings

SMILES | Test A disease control rating (Pythium aphanidermatum; 200 ppm) | Test H disease control rating (Septoria nodorum; 200 ppm) | Test L disease control rating ([1]; 200 ppm) | Test C disease control rating (Sclerotinia sclerotiorum; 200 ppm) | Test B disease control rating ([2]; 200 ppm) | Test J disease control rating (Septoria tritici; 200 ppm) | Test E disease control rating (Botrytis cinerea; 200 ppm) | Test D disease control rating (Plasmopara viticola; 200 ppm) | Test F disease control rating (Phytophthora infestans; 200 ppm) | Test G disease control rating (Rhizoctonia oryzae; 200 ppm) | Test K disease control rating ([3]; 200 ppm) | Test A disease control rating (Pythium aphanidermatum; 40 ppm (*)) | Test H disease control rating (Septoria nodorum; 40 ppm (*)) | Test L disease control rating ([1]; 40 ppm (*)) | Test C disease control rating (Sclerotinia sclerotiorum; 40 ppm (*)) | Test B disease control rating ([2]; 40 ppm (*)) | Test J disease control rating (Septoria tritici; 40 ppm (*)) | Test E disease control rating (Botrytis cinerea; 40 ppm (*)) | Test D disease control rating (Plasmopara viticola; 40 ppm (*)) | Test F disease control rating (Phytophthora infestans; 40 ppm (*)) | further results
CC(C)Cn1c(-c2ccccc2F)c(Cl)nc(-n2cncn2)c1=O [compound 175] | 0% | 99% | 92% | 0% | 0% | 98% | 99% | 12% | 0% | 91% | 60% | – | – | – | – | – | – | – | – | – | –
COc1ccccc1-c1c(Cl)nc(-n2cccn2)c(=O)n1CC(C)C [compound 176] | 0% | 73% | 0% | 0% | 0% | 94% | 99% | 4% | 0% | 56% | 0% | – | – | – | – | – | – | – | – | – | –
CC(C)(C)CCn1c(-c2c(F)cccc2F)c(Cl)nc(-n2cccn2)c1=O [compound 182] | 0% | 0% | 85% | 0% | 0% | 100% | 91% | 0% | 0% | 31% | 85% | – | – | – | – | – | – | – | – | – | –
Cn1c(-c2c(F)cccc2F)c(Cl)nc(-n2cccn2)c1=O [compound 185] | – | – | – | – | – | – | – | – | – | – | – | 0* % | 0* % | 90* % | 0* % | 0* % | 8* % | 81* % | 8* % | 0* % | Test G disease control rating (Rhizoctonia oryzae; 40 ppm (*)): 0* %; Test K disease control rating ([3]; 40 ppm (*)): 0* %
CSCC(C)n1c(-c2c(F)cccc2F)c(Cl)nc(-n2cccn2)c1=O (stereo not drawn) [compound 198] | – | – | – | – | – | – | – | – | – | – | – | 0* % | 0* % | 0* % | 0* % | 0* % | 0* % | 0* % | 8* % | 0* % | Test G disease control rating (Rhizoctonia oryzae; 40 ppm (*)): 0* %; Test K disease control rating ([3]; 40 ppm (*)): 0* %
CSCC(C)n1c(-c2c(F)cccc2F)c(Cl)nc(-n2cncn2)c1=O (stereo not drawn) [compound 199] | – | – | – | – | – | – | – | – | – | – | – | 0* % | 0* % | 0* % | 0* % | 0* % | 1* % | 0* % | 4* % | 0* % | Test G disease control rating (Rhizoctonia oryzae; 40 ppm (*)): 0* %; Test K disease control rating ([3]; 40 ppm (*)): 0* %
CC(CS(C)(=O)=O)n1c(-c2c(F)cccc2F)c(Cl)nc(-n2cccn2)c1=O (stereo not drawn) [compound 200] | – | – | – | – | – | – | – | – | – | – | – | 0* % | 0* % | 0* % | 0* % | 0* % | 9* % | 0* % | 8* % | 0* % | Test G disease control rating (Rhizoctonia oryzae; 40 ppm (*)): 0* %; Test K disease control rating ([3]; 40 ppm (*)): 0* %
CC(CS(C)(=O)=O)n1c(-c2c(F)cccc2F)c(Cl)nc(-n2cncn2)c1=O (stereo not drawn) [compound 201] | – | – | – | – | – | – | – | – | – | – | – | 0* % | 0* % | 0* % | 0* % | 0* % | 0* % | 0* % | 0* % | 0* % | Test G disease control rating (Rhizoctonia oryzae; 40 ppm (*)): 0* %; Test K disease control rating ([3]; 40 ppm (*)): 0* %
Cc1cccc(C)c1-c1c(Cl)nc(-n2cccn2)c(=O)n1CC(C)C [compound 202] | 45% | 99% | 99% | 0% | 93% | 100% | 100% | 12% | 0% | 99% | 100% | – | – | – | – | – | – | – | – | – | –
CC(C)Cn1c(C(C)(C)C)c(Cl)nc(-n2cccn2)c1=O [compound 203] | 74% | 0% | 0% | 0% | 0% | 0% | 0% | 12% | 0% | 0% | 0% | – | – | – | – | – | – | – | – | – | –
CC(C)Cn1c(C(C)C)c(Cl)nc(-n2cccn2)c1=O [compound 204] | 0% | 0% | 99% | 0% | 0% | 90% | 98% | 12% | 0% | 95% | 98% | – | – | – | – | – | – | – | – | – | –
Cc1cccc(C)c1-c1c(Cl)nc(-n2cncn2)c(=O)n1CC(C)C [compound 205] | 0% | 0% | 81% | 0% | 0% | 100% | 100% | 12% | 0% | 85% | 97% | – | – | – | – | – | – | – | – | – | –
CC(C)Cn1c(C(C)(C)C)c(Cl)nc(-n2cncn2)c1=O [compound 206] | 0% | 0% | 56% | 0% | 0% | 3% | 0% | 8% | 0% | 0% | 0% | – | – | – | – | – | – | – | – | – | –
CC(C)Cn1c(C(C)C)c(Cl)nc(-n2cncn2)c1=O [compound 207] | 0% | 0% | 95% | 0% | 0% | 70% | 50% | 8% | 0% | 47% | 0% | – | – | – | – | – | – | – | – | – | –
Cc1ccnc(-c2nc(Cl)c(-c3c(F)cccc3F)n(CC(C)C)c2=O)c1 [compound 208] | 0% | 69% | 0% | 0% | 46% | 100% | 92% | 12% | 0% | 0% | 88% | – | – | – | – | – | – | – | – | – | –
Cc1cccnc1-c1nc(Cl)c(-c2c(F)cccc2F)n(CC(C)C)c1=O [compound 210] | 0% | 0% | 0% | 0% | 0% | 1% | 0% | 16% | 0% | 0% | 0% | – | – | – | – | – | – | – | – | – | –
COC=C(C)n1c(-c2c(F)cccc2F)c(Cl)nc(-n2cccn2)c1=O [compound 211] | – | – | – | – | – | – | – | – | – | – | – | 0* % | 0* % | 0* % | 0* % | 0* % | 25* % | 0* % | 4* % | 0* % | Test G disease control rating (Rhizoctonia oryzae; 40 ppm (*)): 0* %; Test K disease control rating ([3]; 40 ppm (*)): 27* %
COC=C(C)n1c(-c2c(F)cccc2F)c(Cl)nc(-n2cncn2)c1=O [compound 212] | – | – | – | – | – | – | – | – | – | – | – | 0* % | 0* % | 0* % | 0* % | 0* % | 0* % | 0* % | 8* % | 0* % | Test G disease control rating (Rhizoctonia oryzae; 40 ppm (*)): 0* %; Test K disease control rating ([3]; 40 ppm (*)): 0* %
